# Test results from patent US20250115894A1, “Three-dimensional model of exposed microbial membranes at gas-liquid interface and preparation method thereof” (priority 2023, published 2025).
# Structures can show the parent of a compound that is named as a salt.
# What was measured:
# [1] = system: Recombinant Escherichia coli strains with the rec A genetic pathway; assay: Fluorescent signal of rec A recombinant strains exposed to dimethyl sulfate solution, immobilized versus not immobilized; format: cell-based; conditions: 50 mg/L solution of dimethyl sulfate
# [2] = system: 29 recombinant Escherichia coli strains carrying plasmids with different genetic pathways; assay: In-situ gaseous exposure genotoxicity detection with hydrogel beads containing immobilized recombinant Escherichia coli strains; format: cell-based
# Excerpt: Embodiment 5: Immobilization of 29 recombinant Escherichia coli strains carrying plasmids with different genetic pathways by hydrogel beads for genotoxicity detection of pollutants, including DNA damage, DNA repair, and oxidative stress: • (1) The nutrient in the core was a modified M9 medium, including MgCl2, CaCl2), NaCl, NH4Cl, Tris-HCl (pH-7.4) buffer, and glucose, to ensure the continued survival of the recombinant Escherichia coli strains when exposed at the air-liquid interface. • (2) The hydrogel beads containing immobilized 29 recombinant Escherichia coli strains, were assembled in a specially designed gaseous exposure system. Different concentrations (ranging from 20 to 500 mg/m^3) of gaseous methanesulfonic acid methyl ester were introduced into the exposure system for simultaneous exposure. […] In summary, a rapid analysis of the genotoxicity fingerprint of gaseous methanesulfonic acid methyl ester was conducted from the perspective of in-situ exposure.
# [3] = 20 to 500 mg/m^3, as exposure concentration increased
structure (smiles),measurement,setting,value
COS(=O)(=O)OC [dimethyl sulfate],Fluorescent signals of rec A strains immobilized in hydrogel beads compared to not immobilized,[1],stronger fluorescent signals
COS(C)(=O)=O [methanesulfonic acid methyl ester],Ina A gene expression (SOS response),[2]; 20 to 500 mg/m^3,downregulation
same,pol B gene pathway expression (DNA damage/repair),[2]; 20 to 500 mg/m^3,significant upregulation
same,rec A gene pathway expression (DNA damage/repair),[2]; 20 to 500 mg/m^3,significant upregulation
same,rec N gene pathway expression (DNA damage/repair),[2]; 20 to 500 mg/m^3,significant upregulation
same,sox R gene expression (SOS response),[2]; 20 to 500 mg/m^3,downregulation
same,Kat G gene expression (oxidative stress),[2]; [3],significant upregulation
same,ahp C gene expression (oxidative stress),[2]; [3],significant upregulation
